Results on 57 compounds are retold here after patent US20100022531A1, “NOVEL COMPOUNDS AS P2X7 MODULATORS AND USES THEREOF” (RENOVIS, INC., priority 2005, published 2010).

For the first experiment, the target named is T1, P2X7 receptor (Homo sapiens, UniProt Q99572).
T1 construct: host or cells: THP-1 cells differentiated with LPS and IFN-γ
T1 sequence (Q99572 1-595): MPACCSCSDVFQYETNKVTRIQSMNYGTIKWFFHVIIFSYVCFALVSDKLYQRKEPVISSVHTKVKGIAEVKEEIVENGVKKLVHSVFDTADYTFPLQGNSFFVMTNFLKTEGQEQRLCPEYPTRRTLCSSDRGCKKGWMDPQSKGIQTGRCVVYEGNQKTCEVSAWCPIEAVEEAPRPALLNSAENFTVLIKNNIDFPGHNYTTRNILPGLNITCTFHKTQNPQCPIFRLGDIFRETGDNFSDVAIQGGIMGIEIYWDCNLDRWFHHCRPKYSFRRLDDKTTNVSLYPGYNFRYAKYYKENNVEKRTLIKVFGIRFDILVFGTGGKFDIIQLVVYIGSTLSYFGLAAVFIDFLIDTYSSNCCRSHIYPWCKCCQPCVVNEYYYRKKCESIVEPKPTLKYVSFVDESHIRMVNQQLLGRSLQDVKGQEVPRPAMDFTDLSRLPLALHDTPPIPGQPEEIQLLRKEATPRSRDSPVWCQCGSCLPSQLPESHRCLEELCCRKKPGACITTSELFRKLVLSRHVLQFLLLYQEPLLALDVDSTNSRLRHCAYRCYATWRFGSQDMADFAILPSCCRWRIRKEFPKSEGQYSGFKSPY
The experiment can be described thus: Alternate method for IL-1β release assay (differentiated THP-1 cells, BzATP-stimulated, ELISA). The class given is cell-based. Conditions: P2X7; 0.1 μM compound (plus symbols); read-out: IL-1β % inhib @ 0.1 μM. In a few lines: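 After 16 h differentiation with 100 ng/mL LPS and 100 ng/mL IFN-γ plus a further 2 h LPS priming, THP-1 cells were pretreated 30 min with compound, then stimulated with 250 uM BzATP (final) for 45 min. Supernatant IL-1β measured by ELISA; percent inhibition from background-adjusted levels versus untreated cells.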
Background: ELISA stands for enzyme-linked immunosorbent assay.
As to `O=S(=O)(c1ccccc1-c1ccccc1)N1CCc2c(ncnc2NCC23CC4CC(CC(C4)C2)C3)C1` [Compound 50], the inhibition at 0.1 µM was 25 to 50%.

With `O=S(=O)(c1ccc(Oc2ccccc2)cc1)N1CCc2c(ncnc2NCC23CC4CC(CC(C4)C2)C3)C1` [Compound 47], the inhibition at 0.1 µM lay in the range of 50 to 75%.

The experiment is the same for the next values; noted with them: P2X7; 0.1 μM compound (symbols + to ++++); read-out: IL-1β % inhib @ 0.1 μM.
For `O=C(OCc1cscn1)N1CCc2c(ncnc2NCC23CC4CC(CC(C4)C2)C3)C1` [Compound 331], the inhibition at 0.1 µM was in the range of 0 to 25%.

Turning to `Cc1nn(-c2ccccc2)nc1COC(=O)N1CCc2c(ncnc2NCC23CC4CC(CC(C4)C2)C3)C1` [Compound 345], the inhibition at 0.1 µM lay within 25 to 50%.

Turning to `CN(CC(=O)N1CCc2c(ncnc2NCC23CC4CC(CC(C4)C2)C3)C1)Cc1ccccc1` [Compound 260], the inhibition at 0.1 µM was greater than 75%.

In the case of `O=C(OCc1ccccc1F)N1CCc2c(ncnc2NCC23CC4CC(CC(C4)C2)C3)C1` [Compound 337], the inhibition at 0.1 µM lay in the range of 0 to 25%.

In the case of `O=C(OCc1ccccn1)N1CCc2c(ncnc2NCC23CC4CC(CC(C4)C2)C3)C1` [Compound 342], the inhibition at 0.1 µM lay within 0 to 25%.

The experiment is the same for the next values; noted with them: P2X7; 0.3 μM compound (asterisk symbols); read-out: IL-1β % inhib @ 0.3 μM.
As for `O=S(=O)(c1cc(C(F)(F)F)ccc1Cl)N1CCc2c(ncnc2NCC23CC4CC(CC(C4)C2)C3)C1` [Compound 37], the inhibition at 0.3 µM fell in the range of 25 to 50%.

With `O=S(=O)(c1ccccc1Cl)N1CCc2c(ncnc2NCC23CC4CC(CC(C4)C2)C3)C1` [Compound 48], the inhibition at 0.3 µM was greater than 75%.

Consider `O=S(=O)(c1c(Cl)cccc1Cl)N1CCc2c(ncnc2NCC23CC4CC(CC(C4)C2)C3)C1` [Compound 67], for which the inhibition at 0.3 µM is greater than 75%.

For the compound `CC(CCN1CCc2c(ncnc2NCC23CC4CC(CC(C4)C2)C3)C1)CC(C)(C)C` (stereo not drawn) [Compound 163], the inhibition at 0.3 µM is greater than 75%.

For the compound `O=C(c1cc(C(F)(F)F)ccc1Cl)N1CCc2c(ncnc2NCC23CC4CC(CC(C4)C2)C3)C1` [Compound 126], the inhibition at 0.3 µM lay in the range of 0 to 25%.

In the case of `COc1ccc(CN2CCc3c(ncnc3NCC34CC5CC(CC(C5)C3)C4)C2)cc1OC` [Compound 177], the inhibition at 0.3 µM was in the range of 0 to 25%.

Consider `O=C(Cc1ccccc1)N1CCc2c(ncnc2NCC23CC4CC(CC(C4)C2)C3)C1` [Compound 81], for which the inhibition at 0.3 µM is 50 to 75%.

As to `Cc1nn(C)c(Cl)c1S(=O)(=O)N1CCc2c(ncnc2NCC23CC4CC(CC(C4)C2)C3)C1` [Compound 18], the inhibition at 0.3 µM lay in the range of 0 to 25%.

With `c1nc2c(c(NCC34CC5CC(CC(C5)C3)C4)n1)CCN(CC1CC1)C2` [Compound 168], the inhibition at 0.3 µM is 0 to 25%.

For `O=S(=O)(c1c(F)cccc1F)N1CCc2c(ncnc2NCC23CC4CC(CC(C4)C2)C3)C1` [Compound 63], the inhibition at 0.3 µM was greater than 75%.

As to `O=S(=O)(Cc1ccc(Cl)c(Cl)c1)N1CCc2c(ncnc2NCC23CC4CC(CC(C4)C2)C3)C1` [Compound 41], the inhibition at 0.3 µM is 0 to 25%.

As to `O=S(=O)(c1ccc(F)c(Cl)c1)N1CCc2c(ncnc2NCC23CC4CC(CC(C4)C2)C3)C1` [Compound 49], the inhibition at 0.3 µM lay within 50 to 75%.

In the case of `CCCN1CCc2c(ncnc2NCC23CC4CC(CC(C4)C2)C3)C1` [Compound 166], the inhibition at 0.3 µM was in the range of 0 to 25%.

With `Cc1c(S(=O)(=O)N2CCc3c(ncnc3NCC34CC5CC(CC(C5)C3)C4)C2)cnn1-c1ccccc1` [Compound 19], the inhibition at 0.3 µM fell in the range of 50 to 75%.

As for `Cc1nn(-c2ccccc2)nc1C(=O)N1CCc2c(ncnc2NCC23CC4CC(CC(C4)C2)C3)C1` [Compound 128], the inhibition at 0.3 µM was greater than 75%.

As for `N#Cc1ccccc1S(=O)(=O)N1CCc2c(ncnc2NCC23CC4CC(CC(C4)C2)C3)C1` [Compound 74], the inhibition at 0.3 µM lay within 25 to 50%.

Consider `Cc1ccc(CN2CCc3c(ncnc3NCC34CC5CC(CC(C5)C3)C4)C2)cc1C` [Compound 196], for which the inhibition at 0.3 µM was 0 to 25%.

With `O=S(=O)(c1ccccc1OC(F)(F)F)N1CCc2c(ncnc2NCC23CC4CC(CC(C4)C2)C3)C1` [Compound 55], the inhibition at 0.3 µM fell in the range of 0 to 25%.

Turning to `CCCC(C)CN1CCc2c(ncnc2NCC23CC4CC(CC(C4)C2)C3)C1` (stereo not drawn) [Compound 193], the inhibition at 0.3 µM is greater than 75%.

With `CCCS(=O)(=O)N1CCc2c(ncnc2NCC23CC4CC(CC(C4)C2)C3)C1` [Compound 8], the inhibition at 0.3 µM was in the range of 50 to 75%.

With `Cc1cc(C(=O)N2CCc3c(ncnc3NCC34CC5CC(CC(C5)C3)C4)C2)n(C(C)(C)C)n1` [Compound 151], the inhibition at 0.3 µM was 25 to 50%.

Regarding `Cc1cccc(C(=O)N2CCc3c(ncnc3NCC34CC5CC(CC(C5)C3)C4)C2)c1` [Compound 86], the inhibition at 0.3 µM was greater than 75%.

As for `O=C(c1ccc2ccccc2c1)N1CCc2c(ncnc2NCC23CC4CC(CC(C4)C2)C3)C1` [Compound 143], the inhibition at 0.3 µM was 50 to 75%.

In the case of `O=C(Cc1ccc(F)cc1)N1CCc2c(ncnc2NCC23CC4CC(CC(C4)C2)C3)C1` [Compound 96], the inhibition at 0.3 µM lay within 50 to 75%.

Consider `O=S(=O)(c1ccc(Oc2ccc(C(F)(F)F)cc2)cc1)N1CCc2c(ncnc2NCC23CC4CC(CC(C4)C2)C3)C1` [Compound 33], for which the inhibition at 0.3 µM lay in the range of 0 to 25%.

As to `O=S(=O)(c1ccc(Oc2ccncc2)cc1)N1CCc2c(ncnc2NCC23CC4CC(CC(C4)C2)C3)C1` [Compound 31], the inhibition at 0.3 µM was in the range of 25 to 50%.

Take `Clc1ccc(CN2CCc3c(ncnc3NCC34CC5CC(CC(C5)C3)C4)C2)c(Cl)c1` [Compound 181]: the inhibition at 0.3 µM fell in the range of 25 to 50%.

With `O=S(=O)(Cc1ccc(Cl)cc1)N1CCc2c(ncnc2NCC23CC4CC(CC(C4)C2)C3)C1` [Compound 45], the inhibition at 0.3 µM lay within 25 to 50%.

The same experiment, now with this note: P2X7; 0.3 μM compound (symbols * to ****); read-out: IL-1β % inhib @ 0.3 μM.
Turning to `COc1ccc(CN(C)CC(=O)N2CCc3c(ncnc3NCC3C4CC5CC(C4)CC3C5)C2)cc1` (stereo not drawn) [Compound 316], the inhibition at 0.3 µM was 25 to 50%.

Consider `CN(CCc1ccccn1)CC(=O)N1CCc2c(ncnc2NCC2C3CC4CC(C3)CC2C4)C1` (stereo not drawn) [Compound 279], for which the inhibition at 0.3 µM was 50 to 75%.

Consider `O=C(CN1CCC1)N1CCc2c(ncnc2NCC2C3CC4CC(C3)CC2C4)C1` (stereo not drawn) [Compound 283], for which the inhibition at 0.3 µM is 0 to 25%.

For `COc1ccc(CN2CCc3c(ncnc3NCC34CC5CC(CC(C5)C3)C4)C2)cc1OCc1ccccc1` [Compound 203], the inhibition at 0.3 µM fell in the range of 0 to 25%.

Regarding `Brc1cccc(CN2CCc3c(ncnc3NCC34CC5CC(CC(C5)C3)C4)C2)c1` [Compound 225], the inhibition at 0.3 µM is greater than 75%.

On to `COc1cccc(CN(C)CC(=O)N2CCc3c(ncnc3NCC3C4CC5CC(C4)CC3C5)C2)c1` (stereo not drawn) [Compound 308], for which the inhibition at 0.3 µM lay within 0 to 25%.

Turning to `CN(CC(=O)N1CCc2c(ncnc2NCC2C3CC4CC(C3)CC2C4)C1)Cc1cccc(Cl)c1` (stereo not drawn) [Compound 311], the inhibition at 0.3 µM is 25 to 50%.

With `CN(CC(=O)N1CCc2c(ncnc2NCC2C3CC4CC(C3)CC2C4)C1)Cc1ccncc1` (stereo not drawn) [Compound 319], the inhibition at 0.3 µM was 25 to 50%.

In the case of `Clc1ccc(CN2CCc3c(ncnc3NCC34CC5CC(CC(C5)C3)C4)C2)cn1` [Compound 245], the inhibition at 0.3 µM is greater than 75%.

Consider `CCc1ccc(CN(C)CC(=O)N2CCc3c(ncnc3NCC3C4CC5CC(C4)CC3C5)C2)cc1` (stereo not drawn) [Compound 309], for which the inhibition at 0.3 µM was in the range of 25 to 50%.

In the case of `COc1ccc(CN(C)CC(=O)N2CCc3c(ncnc3NCC3C4CC5CC(C4)CC3C5)C2)cc1OC` (stereo not drawn) [Compound 296], the inhibition at 0.3 µM was 0 to 25%.

On to `O=C(CN1CCN(CC(=O)N2CCc3c(ncnc3NCC34CC5CC(CC(C5)C3)C4)C2)CC1)N1CCOCC1` [Compound 267], for which the inhibition at 0.3 µM fell in the range of 0 to 25%.

Turning to `Fc1ccc(CN2CCc3c(ncnc3NCC34CC5CC(CC(C5)C3)C4)C2)cc1` [Compound 218], the inhibition at 0.3 µM is greater than 75%.

`O=C(CN1CCN(c2ncccn2)CC1)N1CCc2c(ncnc2NCC2C3CC4CC(C3)CC2C4)C1` (stereo not drawn) [Compound 301]: the inhibition at 0.3 µM lay within 0 to 25%.

As for `Clc1cc2c(cc1CN1CCc3c(ncnc3NCC34CC5CC(CC(C5)C3)C4)C1)OCO2` [Compound 210], the inhibition at 0.3 µM was in the range of 0 to 25%.

As to `C[C@@H](c1ccccc1)N(C)CC(=O)N1CCc2c(ncnc2NCC2C3CC4CC(C3)CC2C4)C1` (stereo partly drawn) [Compound 315], the inhibition at 0.3 µM is greater than 75%.

As to `Fc1cccc(CN2CCc3c(ncnc3NCC34CC5CC(CC(C5)C3)C4)C2)c1` [Compound 216], the inhibition at 0.3 µM was greater than 75%.

For `N#Cc1cc(CN2CCc3c(ncnc3NCC34CC5CC(CC(C5)C3)C4)C2)ccc1F` [Compound 206], the inhibition at 0.3 µM is greater than 75%.

Turning to `CN(CC(=O)N1CCc2c(ncnc2NCC2C3CC4CC(C3)CC2C4)C1)Cc1cccnc1` (stereo not drawn) [Compound 320], the inhibition at 0.3 µM was in the range of 25 to 50%.

In the case of `c1nc2c(c(NCC34CC5CC(CC(C5)C3)C4)n1)CCN(Cc1ccc3c(c1)OCCO3)C2` [Compound 200], the inhibition at 0.3 µM lay in the range of 0 to 25%.

Consider `Fc1ccc(COc2ccc(CN3CCc4c(ncnc4NCC45CC6CC(CC(C6)C4)C5)C3)cc2)cc1` [Compound 233], for which the inhibition at 0.3 µM was 0 to 25%.

On to `CN1CCC(NCC(=O)N2CCc3c(ncnc3NCC3C4CC5CC(C4)CC3C5)C2)CC1` (stereo not drawn) [Compound 289], for which the inhibition at 0.3 µM was in the range of 0 to 25%.
